Results reported in US5093325A, “Combination preparation having antithrombotic action” (priority 1989, dated 1992).

Columns and labels:
[1] = tested on: occluding platelet thrombi on mesenteric arterioles; assay: Thrombogenic ADP concentration for occluding platelet thrombi on previously traumatized mesenteric arterioles; format: in vivo, guinea pig; details: for Thrombogenic ADP Concentration, Increase: N 5, average
Description: A mesenteric loop is placed on an anesthetized guinea pig and is superfused with a moderately heated solution of common salt. Under intravital microscopic control the vascular wall of a mesenteric arteriole (020-50 m) is traumatized by a series of electric pulses. By subsequent local application of increasing concentrations of ADP (adenosine diphosphate) solution a thrombogenic ADP concentration is determined, at which an occluding platelet thrombus forms on the pretraumatized site of the arteriole. This thrombogenic ADP concentration produces vascular-specific and reproducible thrombi in the respective arteriole.

[2] = tested on: collagen-stimulated blood platelets; assay: Inhibition of collagen-induced thrombocytopenia in anesthetized guinea pigs; format: in vivo, guinea pig; details: for % Thrombocytopenia Inhibition: average ± SEM
Description: Reversible thrombocytopenias are produced on anesthetized guinea pigs by injection of collagen ([…] i.v.). The cause of these thrombocytopenias is an aggregate formation of the collagen-stimulated blood platelets and the embolization of these platelet aggregates in the lungs, where they then lodge and thus cause the observed drops of the platelet count in the blood (thrombocytopenias).

[3] = tested on: thrombus formation in carotid arteries; assay: Thrombus formation in carotid arteries previously traumatized by pressure + cold (thrombus hemoglobin content); format: in vivo, guinea pig
Description: A 2-cm-long piece of the external left carotid artery on an anesthetized guinea pig is carefully exposed and drawn over a small metal plate. Then the vascular wall is weighted down over a length of 1 cm for 3 minutes with a steel stamp weighing 200 g, cooled to -15° C. In this way, a massive local vascular trauma is caused on a large artery and a red thrombus develops on the traumatized site. Three hours after the trauma the traumatized segment and an equally long piece of the contralateral artery are removed, asked and put in hemoglobin test reagent. The hemoglobin contents of the two segments are determined 24 hours later. The net hemoglobin content of the red thrombus as the measurement of the thrombus size is calculated from the difference of these hemoglobin contents.

human platelets = assay: Inhibition of collagen-stimulated aggregation of human platelets in platelet-rich plasma (aggregometer); format: cell-based
Description: (§1) Human platelet-rich plasma (PRP) is incubated in an aggregometer at 37° C. and mixed with […] of collagen to cause aggregation. […] The course of the aggregation is recorded in the aggregometer. 10 minutes after collagen addition, the samples are centrifuged at 3000 rpm and the supernatant is tested with an enzyme linked immunosorbent assay (ELISA) for its content of plasminogen activator inhibitor-1 (PAI-1) and with a radioimmunoassay (RIA) for the content of platelet-derived growth factor (PDGF).

[4] = tested on: PDGF release of human platelets; assay: Inhibition of PDGF release from collagen-stimulated human platelets (RIA); format: cell-based; details: Platelet, N = 6, % of control
Description: as §1

[5] = tested on: PAI-1 release of human platelets; assay: Inhibition of PAI-1 release from collagen-stimulated human platelets (ELISA); format: cell-based; details: Platelet, N = 6, % of control
Description: as §1

`CC(=O)Oc1ccccc1C(=O)O` [ASA, acetylsalicylic acid] was tested, and the “change of thrombogenic ADP concentration, in words” value ([1]; ASA 10 mg/kg i.v.) was “does not change the thrombogenic ADP concentration”, the “Thrombogenic ADP Concentration, Increase” value ([1]; ASA 10 mg/kg, SEM ±0.13, n.s.) was 0.06 and the “thrombocytopenia inhibition, in words” value ([2]; ASA 0.5 mg/kg i.v.) was “weakly inhibiting”. The “% Thrombocytopenia Inhibition” value ([2]; ASA 0.5 mg/kg i.v., N 8, p less than 0.05 vs control) was 17 ± 3%, the “effect on thrombus formation in the carotid artery, in words” value ([3]; ASA 5 mg/kg i.v.) was “no significant effect” and the Thrombus Hb content, Median ([3]; ASA 5 mg/kg, N 10, Q 25/Q 75 -0.1/13.8, n.s., control 8.6) was 3.4 µmol.

For `CCC#CC[C@H](C)[C@H](O)C#C[C@@H]1[C@H]2C/C(=C/COCC(=O)O)C[C@H]2C[C@H]1O` [Cicaprost], the “higher dosage of Cicaprost alone needed for the antithrombotic action of the combination” value ([1]; 100 ng/kg/min i.v. alone vs 10 ng/kg/min in combination) was 10 fold, the “change of thrombogenic ADP concentration, in words” value ([1]; Cicaprost 10 ng/kg/min i.v.) was “not significantly effective” and the “Thrombogenic ADP Concentration, Increase” value ([1]; Cicaprost 10 ng/kg/min, SEM ±0.39, n.s.) was 0.36. For the same compound, the “Thrombogenic ADP Concentration, Increase” value ([1]; Cicaprost 30 ng/kg/min, SEM ±0.20, p less than 0.05 vs control) was 1.02, the “increase of the thrombogenic ADP concentration” value ([1]; Cicaprost 100 ng/kg/min i.v., N=5) was 1.32±0.2 log M and the “Thrombogenic ADP Concentration, Increase” value ([1]; Cicaprost 100 ng/kg/min, SEM ±0.20, p less than 0.05 vs control) was 1.32. For the same compound, the “platelet aggregation inhibition, in words” value (human platelets; Cicaprost 10^-10 or 10^-9 M, separately) was “ineffective”, the inhibition at 0.1 µM (human platelets; Homo sapiens, Platelet, Cicaprost 10^-7 M, N = 6, % of control) was 95 ± 3% and the inhibition at 0.01 µM (human platelets; Homo sapiens, Platelet, Cicaprost 10^-8 M, N = 6, % of control) was 95 ± 4%. The inhibition at 0.001 µM (human platelets; Homo sapiens, Platelet, Cicaprost 10^-9 M, N = 6, % of control) was 0%, the inhibition at 0.0001 µM (human platelets; Homo sapiens, Platelet, Cicaprost 10^-10 M, N = 6, % of control) was 4 ± 3% and the “thrombocytopenia inhibition, in words” value ([2]; Cicaprost 1 ng/kg/min i.v., separately) was “ineffective”. The “% Thrombocytopenia Inhibition” value ([2]; Cicaprost 1 ng/kg/min i.v., N 6, n.s.) was 8 ± 5%, the “% Thrombocytopenia Inhibition” value ([2]; Cicaprost 3 ng/kg/min, N 6, p less than 0.05 vs control) was 36 ± 4% and the “higher dose of Cicaprost alone needed for the effect of the combination” value ([2]; vs 1 ng/kg/min i.v. in combination with ASA 0.5 mg/kg) was “three-fold higher dose”. It also gave an inhibition at 0.1 µM ([4]; Cicaprost 10^-7 M) of 81 ± 1%, an inhibition at 0.01 µM ([4]; Cicaprost 10^-8 M) of 81 ± 3% and an inhibition at 0.001 µM ([4]; Cicaprost 10^-9 M) of 3 ± 3%. The inhibition at 0.0001 µM ([4]; Cicaprost 10^-10 M) was 1 ± 2%, the Thrombus Hb content, Median ([3]; Cicaprost 0.3 ng/kg/min, N 10, Q 25/Q 75 8.0/25.0, n.s., control 8.6) was 12.4 µmol and the Thrombus Hb content, Median ([3]; Cicaprost 1.0 ng/kg/min, N 10, Q 25/Q 75 0.2/5.8, significant vs control 8.6) was 1.9 µmol. For the same compound, the Thrombus Hb content, Median ([3]; Cicaprost 3.0 ng/kg/min, N 11, Q 25/Q 75 -0.4/0.7, significant vs control 8.6) was 0 µmol, the “effect on thrombus formation in the carotid artery, in words” value ([3]; dosage printed C.3 ng/kg/min i.v.) was “significantly effective” and the inhibition at 0.1 µM ([5]; Cicaprost 10^-7 M) was 80 ± 5%. The inhibition at 0.01 µM ([5]; Cicaprost 10^-8 M) was 72 ± 3%, the inhibition at 0.001 µM ([5]; Cicaprost 10^-9 M) was 0% and the inhibition at 0.0001 µM ([5]; Cicaprost 10^-10 M) was 0%.
